# Source: patent publication US12239711B2, “Cereblon ligands and bifunctional compounds comprising the same” (Arvinas Operations, Inc., priority 2014, dated 2025)
# pIC50: −log10 of the molar value.
# Legend:
# [1] = target: T1, Estrogen Receptor-Alpha (ERα) (Homo sapiens, UniProt P03372); assay: Estrogen Receptor-Alpha (ERα) degradation assay in MCF-7 cells (western blot / In-Cell Western); format: cell-based; settings: for Dmax: MCF7, read-out: ER Dmax; for DC50: read-out: ER DC50
# T1 construct: endogenous in cells; host or cells: MCF-7 (MCF7) cells
# T1 sequence (P03372 1-595): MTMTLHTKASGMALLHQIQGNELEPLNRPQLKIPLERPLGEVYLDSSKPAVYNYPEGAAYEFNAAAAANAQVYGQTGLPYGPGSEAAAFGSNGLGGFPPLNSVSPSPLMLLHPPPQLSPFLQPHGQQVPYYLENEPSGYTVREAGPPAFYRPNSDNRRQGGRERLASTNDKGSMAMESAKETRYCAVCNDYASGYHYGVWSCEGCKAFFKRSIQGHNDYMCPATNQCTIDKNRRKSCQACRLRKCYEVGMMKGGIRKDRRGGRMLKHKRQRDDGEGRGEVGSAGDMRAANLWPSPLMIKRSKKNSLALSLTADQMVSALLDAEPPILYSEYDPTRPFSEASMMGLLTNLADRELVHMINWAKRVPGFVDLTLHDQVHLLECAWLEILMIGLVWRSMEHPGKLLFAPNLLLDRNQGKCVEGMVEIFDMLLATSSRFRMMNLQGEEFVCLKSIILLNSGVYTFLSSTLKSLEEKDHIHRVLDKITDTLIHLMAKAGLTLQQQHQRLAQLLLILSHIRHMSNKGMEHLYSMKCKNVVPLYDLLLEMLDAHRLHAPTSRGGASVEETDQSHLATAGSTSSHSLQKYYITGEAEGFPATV
# Description: 2. Estrogen Receptor-Alpha (ERα) Degradation Assay in MCF-7 Cells Using Western Blot Method for Table 5.
# The exemplary novel ERα degraders were assessed for their activity in degrading ERα in MCF-7 cells via western blot. The assay was carried out in the presence of 10% FBS or high percentage of human or mouse serum. Protocols of the western blot assay are described below.
# MCF7 cells were grown in DMEM/F12 with 10% FBS and seeded at 24,000 cells per well in 100 μl into 96-well clear tissue culture plates. The following day, the cells were treated with PROTACs in a […] concentration curve with 100 nM being the top concentration and serial dilutions to make the other concentrations (30 nM, 10 nM, 3 nM, 1 nM, and 0.3 nM). At all concentrations, 0.01% DMSO is the final concentration in the well. The following day, the plates are aspirated, washed with 50 μl of cold PBS. The cells are lysed with 50 μl/well 4° C. Cell Lysis Buffer (Catalog #9803; Cell Signaling Technology, Danvers, MA) (20 mM Tris-HCL (pH 7.5), 150 mM NaCl, 1 mM Na2EDTA, 1 mM EGTA, 1% Triton, 2.5 mM sodium pyrophosphate, 1 mM B-glycerophosphate, 1 mM sodium vanadate, 1 ug/ml leupeptin). Lysates were clarified at 16,000×g for 10 minutes, and 2 μg of protein was subjected to SDS-PAGE analysis and followed by immunoblotting according to standard protocols. The antibodies used were ERα (Cell Signaling Technologies Catalog #8644), and Tubulin (Sigma Catalog #T9026; St. Louis, MO). Detection reagents were Clarity Western ECL substrate (Bio-Rad Catalog #170-5060; Hercules, CA).
# Alternatively, MCF7 cells were grown in DMEM/F12 with 10% FBS and seeded at 24,000 cells per well in 500 μl in 24-well clear tissue culture plates. The following day, the cells were treated with PROTACs in a 5-point concentration curve (100 nM, 33 nM, 11 nM, 3.7 nM, and 1.2 nM) in the presence of 0.01% DMSO. After 72 hours, the wells are aspirated and washed with 500 μl of PBS. The cells are lysed with 100 μl/well 4° C. Cell Lysis Buffer (Catalog #9803; Cell Signaling Technology, Danvers, MA) (20 mM Tris-HCL (pH 7.5), 150 mM NaCl, 1 mM Na2EDTA, 1 mM EGTA, 1% Triton, 2.5 mM sodium pyrophosphate, 1 mM B-glycerophosphate, 1 mM sodium vanadate, 1 ug/ml leupeptin). Lysates were clarified at 16,000×g for 10 minutes, and 2 μg of protein was subjected to SDS-PAGE analysis and followed by immunoblotting according to standard protocols. The antibodies used were ERα (Cell Signaling Technologies Catalog #8644), and Tubulin (Sigma Catalog #T9026; St. Louis, MO). Detection reagents were Clarity Western ECL substrate (Bio-Rad Catalog #170-5060; Hercules, CA).
# 3. Estrogen Receptor-Alpha (ERα) Degradation Assay Using In-Cell Western™ Assay for Table 5.
# Degradation of ERα by claimed compounds were determined in MCF7 cells using an In-Cell Western™ assay. Briefly, MCF7 cells were plated in 96-well plates (2000 cells per well in 100 μl media) and incubated at 37° C. under an atmosphere of 5% CO2 in a humidified incubator overnight. One-hundred (100) μl of media containing test compound (at 2× concentration) was added to the appropriate wells to provide 11 serially decreasing concentrations (top final concentration, 1 μM then 3-fold less for the next 10 concentrations); a vehicle control (DMSO) was also added for each compound. For each experiment, all compounds were assayed in duplicate plates. Cells were then incubated for 3 or 5 days in the above-mentioned environment. The assay was terminated by removal of media, a single wash with ice-cold PBS and the addition of 50 μl paraformaldehyde (PFA: 4% in PBS). After 15 minutes in PFA at room temperature, the cells were permeabilized in Tris-phosphate-buffered saline with Tween (0.1%) (TBST) supplemented with Triton X-100 (0.5%) for 15 minutes. Cells were then blocked in BSA (TBST with BSA, 3%) for one hour. […]
# [2] = system: estrogen responsive element/promoter/luciferase reporter gene; assay: ERE Luciferase Assay in T47D-KBluc cells; format: cell-based, human; settings: Homo sapiens, 24 hours, luciferase activity, read-out: Target Engagement IC50
# Description: 1. ERE Luciferase Assay for Compounds in Table 5.
# T47D-KBluc cells (ATCC® #CRL_2865, T47D human breast cancer cells stably transfected with estrogen responsive element/promoter/luciferase reporter gene) were seeded into 96-well white opaque plates in RPMI growth medium supplemented with 10% fetal bovine serum (FBS) and allowed to adhere overnight in a 37° C. humidified incubator. The following day, cells were treated with PROTACs in a 12-point concentration curve (top final concentration of 300 nM with subsequent concentrations being 3-fold less with 2 pM being the lowest concentration in the assay). Each PROTAC was tested independently in two experiments on 96-well plates. After 24 hours, media was removed and lysis buffer was added to the wells. Following lysis, Bright-Glo™ Luciferase Assay Substrate (Promega, Madison WI) was added and the luciferase activity was measured using a Cytation 3 plate reader (BioTek™, Winooski, VT). Each compound was assayed in duplicate and the activity was calculated as IC50 using GraphPad Prism software (San Diego, CA).
Structure (SMILES),Dmax [1] [%],DC50 [1] [nM],pIC50 [2]
"COc1cc(N2CCN(CCCCCOc3ccc([C@@H]4c5ccc(O)cc5CC[C@@H]4c4ccccc4)cc3)CC2)cc2c1C(=O)N([C@@H]1CCC(=O)NC1=O)C2 [compound 13, (3R)-3-[5-[4-[5-[4-[(1R,2S)-6-hydroxy-2-phenyl-tetralin-1-yl]phenoxy]pentyl]piperazin-1-yl]-7-methoxy-1-oxo-isoindolin-2-yl]piperidine-2,6-dione]",≥ 75,< 1,9.43
"O=C1CCC(N2Cc3cc(N4CCN(CCC5(O)CC(Oc6ccc([C@@H]7c8ccc(O)cc8CC[C@@H]7c7ccccc7)cc6)C5)CC4)cc(OC(F)F)c3C2=O)C(=O)N1 (stereo partly drawn) [compound 27, 3-[7-(difluoromethoxy)-5-[4-[2-[1-hydroxy-3-[4-[(1R,2S)-6-hydroxy-2-phenyl-tetralin-1-yl]phenoxy]cyclobutyl]ethyl]piperazin-1-yl]-1-oxo-isoindolin-2-yl]piperidine-2,6-dione]",50 to 75,< 1,9.30
"O=C1CCC(N2Cc3cc(N4CCN(CCC5CCN(c6ccc([C@@H]7c8ccc(O)cc8CC[C@@H]7c7ccccc7)cc6)CC5)CC4)cc(OC(F)F)c3C2=O)C(=O)N1 (stereo partly drawn) [compound 22, 3-[7-(difluoromethoxy)-5-[4-[2-[1-[4-[(1R,2S)-6-hydroxy-2-phenyl-tetralin-1-yl]phenyl]-4-piperidyl]ethyl]piperazin-1-yl]-1-oxo-isoindolin-2-yl]piperidine-2,6-dione]",≥ 75,1 to 10,8.36
"COc1cc(N2CCN(CCC3CCN(c4ccc([C@@H]5c6ccc(O)cc6CC[C@@H]5c5ccccc5)cc4)CC3)CC2)cc2c1C(=O)N(C1CCC(=O)NC1=O)C2 (stereo partly drawn) [compound 10, 3-[5-[4-[2-[1-[4-[(1R,2S)-6-hydroxy-2-phenyl-tetralin-1-yl]phenyl]-4-piperidyl]ethyl]piperazin-1-yl]-7-methoxy-1-oxo-isoindolin-2-yl]piperidine-2,6-dione]",≥ 75,1 to 10,9.07
"COCCOc1c(N2CCN(CC3CCN(c4ccc([C@@H]5c6ccc(O)cc6CC[C@@H]5c5ccccc5)cc4)CC3)CC2)ccc2c1CN(C1CCC(=O)NC1=O)C2=O (stereo partly drawn) [compound 11, 3-[5-[4-[[1-[4-[(1R,2S)-6-hydroxy-2-phenyl-tetralin-1-yl]phenyl]-4-piperidyl]methyl]piperazin-1-yl]-4-(2-methoxyethoxy)-1-oxo-isoindolin-2-yl]piperidine-2,6-dione]",50 to 75,1 to 10,8.70
"O=C1CCC(n2nc3cc(N4CCN(CCCCCOc5ccc([C@@H]6c7ccc(O)cc7CC[C@@H]6c6ccccc6)cc5)CC4)ccn3c2=O)C(=O)N1 (stereo partly drawn) [compound 25, 3-{7-[4-(5-{4-[(1R,2S)-6-hydroxy-2-phenyl-1,2,3,4-tetrahydronaphthalen-1-yl]phenoxy}pentyl)piperazin-1-yl]-3-oxo-2H,3H-[1,2,4]triazolo[4,3-a]pyridin-2-yl}piperidine-2,6-dione]",< 50,–,9.30
"COc1cc(N2CCN(CC3CCN(c4c(F)cc([C@@H]5c6ccc(O)cc6CC[C@@H]5c5ccccc5)cc4F)CC3)CC2)cc2c1C(=O)N(C1CCC(=O)NC1=O)C2 (stereo partly drawn) [compound 19, 3-(5-(4-((1-(2,6-difluoro-4-((1R,2S)-6-hydroxy-2-phenyl-1,2,3,4-tetrahydronaphthalen-1-yl)phenyl)piperidin-4-yl)methyl)piperazin-1-yl)-7-methoxy-1-oxoisoindolin-2-yl)piperidine-2,6-dione]",≥ 75,1 to 10,8.35
"COc1cc(N2CCN(CCCCCOc3ccc([C@@H]4c5ccc(O)cc5CC[C@@H]4c4ccccc4)cc3)CC2)cc2c1C(=O)N([C@H]1CCC(=O)NC1=O)C2 [compound 14, (3S)-3-[5-[4-[5-[4-[(1R,2S)-6-hydroxy-2-phenyl-tetralin-1-yl]phenoxy]pentyl]piperazin-1-yl]-7-methoxy-1-oxo-isoindolin-2-yl]piperidine-2,6-dione]",≥ 75,< 1,9.31
"O=C1CCC(N2Cc3cc(N4CCN(CCCCCOc5ccc([C@@H]6c7ccc(O)cc7CC[C@@H]6c6ccccc6)cc5)CC4)cc(OC(F)F)c3C2=O)C(=O)N1 (stereo partly drawn) [compound 20, 3-[7-(difluoromethoxy)-5-[4-[5-[4-[(1R,2S)-6-hydroxy-2-phenyl-tetralin-1-yl]phenoxy]pentyl]piperazin-1-yl]-1-oxo-isoindolin-2-yl]piperidine-2,6-dione]",50 to 75,1 to 10,8.92
"O=C1CCC(N2C(=O)c3ccc(N4CCN(CC5CCN(c6ccc([C@@H]7c8ccc(O)cc8CC[C@@H]7c7ccccc7)cc6F)CC5)CC4)cc3C23CC3)C(=O)N1 (stereo partly drawn) [compound 30, 3-[6′-[4-[[1-[2-fluoro-4-[(1R,2S)-6-hydroxy-2-phenyl-tetralin-1-yl]phenyl]-4-piperidyl]methyl]piperazin-1-yl]-3′-oxo-spiro[cyclopropane-1,1′-isoindoline]-2′-yl]piperidine-2,6-dione]",50 to 75,1 to 10,8.68
"COCCOCCOc1c(CCN2CCCN(CCCCOc3ccc([C@H]4c5ccc(O)cc5CC[C@H]4c4ccccc4)cc3)CC2)ccc2c1CN([C@H]1CCC(=O)NC1=O)C2=O [compound 7, (3S)-3-(5-{2-[4-(4-{4-[(1S,2R)-6-hydroxy-2-phenyl-1,2,3,4-tetrahydronaphthalen-1-yl]phenoxy}butyl)-1,4-diazepan-1-yl]ethyl}-4-[2-(2-methoxyethoxy)ethoxy]-1-oxo-2,3-dihydro-1H-isoindol-2-yl)piperidine-2,6-dione]",50 to 75,≥ 100,6.99
